Measured values from US20160340656A1, “PEPTIDES DERIVED FROM GSE 24.2 FOR TREATING DISEASES CAUSED BY OXIDATIVE STRESS AND DAMAGE TO DNA” (CONSEJO SUPERIOR DE INVESTIGACIONES CIENTÍFICAS (CSIC), priority 2013, published 2016).
Entries after “also recorded” stand apart in the source; their conditions may differ.

How the values were obtained:
AT719-P cells = assay: Oxidative stress (ROS by DHE, flow cytometry) in AT719-P cells expressing GSE24.2 or GSE4; assay type: cell-based, human; details: three weeks after infection
Experimental: FIG. 11. Determination of oxidative stress levels in ataxia telangiectasia cells after expressing the peptides GSE24.2 and GSE4. AT719-P cells were infected with a lentiviral vector expressing GSE24.2, GSE4 or a GFP empty vector and three weeks later loaded with the DHE reagent that detects levels of reactive oxygen species (ROS). AT736C cells were used as a control. The relative fluorescence of the four cell lines and the proportion of cells with maximum intensity were determined by flow cytometry at wavelengths of 518 nm absorption and 605 nm emission. The data are shown as relative percentage of cells that emit at this wavelength.
(§1) As the peptide denominated GSE4 was smaller than the peptides with ability to repair telomerase activity, we studied if it had the same activity as peptide GSE24.2 for attenuating oxidative stress, expression of proinflammatory cytokines and repairing the senescence in ataxia telangiectasia cells. […] Finally, given that the increase in expression of the interleukins IL6 and IL8 are associated with a secretory phenotype linked to senescence in ataxia telangiectasia, we evaluated the ability of both peptides GSE24.2 and GSE4 to reduce senescence by evaluating senescence-associated β-galactosidase activity (SA-beta-Gal) (FIG. 13).

[1] = test system: telomerase activity in VA13 cells; assay: Telomerase activity (TRAP assay) in VA13 cells after peptide transfection; assay type: cell-based; details: 8 μg peptide
Experimental: FIG. 10. Determination of telomerase activity in VA13 cells after transfection of the peptides GSE4 and GSE5. In order to determine the effect of expression of peptides GSE4 and GSE5, VA13 cells were transfected through lipofection and 24 hours later a TRAP assay was performed for telomerase activity.
The other way of quantifying the activity of peptide GSE4 was to evaluate its ability to increase telomerase activity in VA13 cells. To do this, these cells were transfected with 8 μg of the two peptides GSE4 and GSE5. […], the cells were processed to test the telomerase activity by the TRAP method.

F9A353V cells = assay: Repair of damage to DNA: Western blot of histone H2AX (Ser139) in F9A353V cells transfected with synthetic peptides; assay type: cell-based
Experimental: FIG. 6. Western blot of F9 and F9A353V cells after 24 hours of transfection with chemically synthesized peptides derived from GSE24.2. The peptides indicated on each line of gel were transfected (15 μg of each peptide) on a 30 mm plate. After separating the protein extracts on polyacrylamide gels and transferring them to a nitrocellulose membrane, the membrane was hybridised with an antibody against histone H2AX (Ser139) and then with an antibody against α-tubulin as a loading control.
FIG. 7. Quantification of Western blot of FIG. 6. The signal obtained with histone H2AX (Ser139) was corrected with the signal of α-tubulin considering the signal obtained with the F9 cells transfected with beta-galactosidase (as control) as 1, using the NIH-Image program.
FIG. 8. Western blot of F9 and F9A353V cells after 24 of transfection with the GSE4 peptide at increasing concentrations. […]
FIG. 9. Quantification of the Western blot of FIG. 8. […]
In order to optimise the operating conditions of peptide GSE4, different amounts of peptide GSE4 were transfected into F9A353V cells and the amount of damage to DNA was determined using a specific antibody as was performed in FIG. 6 (FIG. 8). After quantification of the Western blot (FIG. 9), maximum inhibition of damage to DNA was obtained by transfecting 8 μg of peptide GSE4.

IL8 = assay: Expression of proinflammatory cytokine IL8 in AT719-P cells; assay type: cell-based, human; details: relative to β-actin
Experimental: FIG. 12. Levels of expression of proinflammatory cytokines in ataxia telangiectasia cells after expressing peptides GSE24.2 and GSE4. AT719-P AT cells were infected with a lentiviral vector expressing GSE24.2, GSE4 or a GFP empty vector and three weeks later the RNA was extracted and after obtaining the corresponding cDNA, the levels of expression of the proinflammatory cytokines IL6 and IL8 were determined. AT736C cells were used as a control. The levels of expression of the gene β-actin were measured as control of expression. The results are expressed as the relative increase in the number of times of expression of each of the genes compared to β-actin, considering the levels of expression of AT736C cells as 1.
as §1

AT2078 AT cells = assay: Senescence-associated β-galactosidase activity in AT cells; assay type: cell-based, human; details: 3 days or eight days after infection
From the text: FIG. 13. Determination of senescence of AT cells after expressing peptides GSE24.2 and GSE4: AT2078 AT cells were infected with a lentiviral vector expressing GSE24.2, GSE4 or a GFP empty vector and 3 days or eight days later they were fixed to determine the expression of the enzyme β-galactosidase acid associated with senescence (senescence-associated β-galactosidase). Control C-1787 cells were used as the negative control. The percentage of cells expressing β-galactosidase from the total cells per field was determined. 200 cells per cell type were evaluated and the results grouped into cells showing no activity (βgal-, in division) and senescent cells (β-gal+).
as §1

AT cells (AT3784) = assay: Damage to DNA in AT cells: pCHK2 Thr68 foci after lentiviral expression of GSE24.2; assay type: cell-based, human
Experimental: FIG. 2. Determination of damage to DNA in AT cells: AT3784 AT cells were infected with a lentiviral vector expressing GSE24.2 or a GFP empty vector and were fixed 24 hours later to be processed and hybridised with an antibody against the kinase pCHK2[…]. Control C-1787 cells were used as the negative control. Next they were hybridised with a fluorescein-labelled antibody and were stained with DAPI to locate the nuclei. […] Therefore expression of GSE24.2 is able to correct damage to DNA in 28% of cells, confirming the data obtained with phosphorylated histone H2AX.

Sequence	reduction of levels of free radicals (AT719-P cells) [%]	reactivation of telomerase activity [1]	amount of peptide transfected giving maximum inhibition of damage to DNA (F9A353V cells; increasing amounts of peptide) [µg]	repair of damage to DNA (phosphorylation of histone H2AX) (F9A353V cells; peptides lipofected with Proteojuice, 24 hours)	reduction of levels of expression of IL8 (IL8)	senescence: percentage of cells positive for beta-galactosidase activity (AT2078 AT cells)	cells in which damage to DNA is corrected (AT cells (AT3784)) [%]	fewer AT cells showing basal damage (AT cells (AT3784); after expressing GSE24.2) [%]	reduction of high levels of damage to DNA (AT cells (AT3784); after expressing GSE24.2) [%]
GFINLDKPSNP [GSE4]	50	much higher activity in reactivating telomerase activity	8	substantially improved the activity of the full domain; also recorded: smallest sized peptide able to repair the damage to DNA	90%	reduced the percentage of positive cells for beta-galactosidase activity progressively over time			
GFINLDKPSNPSSHEVVAWIRRILRVEKTGHSGTLDPKVTGCLIVCIERATRLVK (GSE24.2; listed as Homo sapiens) [55-amino-acid peptide corresponding to the protein dyskerin; known from WO2007/090911]	~50				in the same range	reduced the percentage of positive cells for beta-galactosidase activity progressively over time	28	25	13
